{
  "source": "patent US11739083B2",
  "about": "“Disposable sensor chip with reagent including 2-substituted benzothiazolyl-3-substituted phenyl-5-substituted sulfonated phenyl-2H-tetrazolium salt” (TERUMO KABUSHIKI KAISHA, priority 2016, dated 2023)",
  "key": {"[1]": {"experiment": "Maximum absorption wavelength (λmax) of formazan-nickel chelate by spectrophotometer", "type": "physicochemical", "details": "chelate of formazan and nickel ion, aqueous MOPS, cell length 10 mm, n=1", "protocol": "10 mM aqueous solution of MOPS was added to each of the formazan compounds so as to obtain a final concentration of […], and thereby 100 μL of a sample was produced. At this time, all of the samples were red-brown in color. Apart from this, a 1 M aqueous solution of nickel ion was produced.\nFor mixed solutions of various compounds in an aqueous solution of formazan and an aqueous solution of nickel, the spectra were measured with a spectrophotometer (measurement cell length: 10 mm) (n=1). Based on each of the spectra, the maximum absorption wavelength (λmax) (nm) of each of the compounds in formazan was determined. From FIG. 1, it is understood that the maximum absorption wavelength (λmax) of the chelate compound of formazan compound 1 and nickel ion is 630 nm.\nThe absorbance at the maximum absorption wavelength is denoted as 100%."}, "[2]": {"experiment": "Evaluation of sensitivity (colour development with glucose, GDH-FAD, m-PMS, nickel; gradient versus WST-4)", "protocol": "Separately, 100 μL of RO water was added to 7 mg of a glucose dehydrogenase that uses flavin adenine dinucleotide (FAD) as a coenzyme (GDH-FAD) (manufactured by TOYOBO CO., LTD., product No.: GLD-351), the enzyme was dissolved, and thus a GDH solution was produced. Furthermore, 200 μL of RO water was added to 3.5 mg of 1-methoxy-5-methylphenazium methyl sulfate (m-PMS) (manufactured by DOJINDO LABORATORIES), and the compound was dissolved therein. Thus, an s-PMS solution was produced. 1 mL of RO water was added to 129 mg of nickel chloride to dissolve the salt, and thus a nickel solution was produced.\n40 μL of the reaction solution was added to 10 μL each of an aqueous glucose solution at a concentration of 125 mg/dL, an aqueous glucose solution at a concentration of 250 mg/dL, and an aqueous glucose solution at a concentration of 1,000 mg/dL, and the mixtures were allowed to develop color. The spectra were measured with a spectrophotometer (measurement cell length: 50 μm) (n=1). […] Thus, the gradient (gradientsample) was determined.\n40 μL of the control reaction solution was added to 10 μL each of an aqueous glucose solution at a concentration of 125 mg/dL, an aqueous glucose solution at a concentration of 250 mg/dL, and an aqueous glucose solution at a concentration of 1,000 mg/dL, and the mixtures were allowed to develop color. The spectra were measured with a spectrophotometer (measurement cell length: 50 μm) (n=1). For each of the spectra, the absorbance at 650 nm, which is the measurement wavelength (λmax) of WST-4, was measured, and the glucose concentration in the colored solution and the absorbance were plotted on the horizontal axis and the vertical axis, respectively. Thus, the gradient (gradientWST-4) was determined.\nFIG. 2 is a graph showing the relationship between the glucose concentration and the absorbance of produced formazan in relation to the tetrazolium compound 1 and WST-4. […] Meanwhile, the gradient serves as an index for the color development intensity of each compound. Therefore, when the value obtained by dividing the gradientsample by the gradientWST-4 (gradientsample/gradientWST-4) is greater than one-fold, it is implied that the intensity of color development on the longer wavelength side is higher compared to WST-4, which is a well-known indicator reagent."}, "[3]": {"experiment": "Evaluation of water-solubility (visual check for precipitate)", "type": "physicochemical", "details": "RO water and 0.5 M MOPS pH 7.2; 200, 100, 20 mM; stirred 5 minutes", "protocol": "After the mixture was stirred for 5 minutes, a precipitate was checked by visual inspection. […] After the mixture was stirred for 5 minutes, a precipitate was checked by visual inspection. […] After the mixture was stirred for 5 minutes, a precipitate was checked by visual inspection."}, "[4]": {"experiment": "Evaluation of stability (absorbance increase of measurement solution over 6 hours)", "details": "FIG. 3; absorbance increase per hour over 6 hours", "experimental": "To 0.02 mmol of each compound, 75 μL of RO water and 100 μL of a 0.5 M MOPS solution (pH 7.2) were added, and the compound was dissolved therein. The solution was used as a sample.\nTo 175 μL of this sample, 10 μL of the GDH solution, 5 μL of the m-PMS solution, and 10 μL of the nickel solution, all of which had been produced in the same manner as in the above section (Evaluation of sensitivity), were added, and thereby a measurement solution was produced.\nAs a control, 85 μL of RO water and 100 μL of a 0.5 M MOPS solution (pH 7.2) were added to 11.6 mg of 2-benzothiazolyl-3-(4-carboxy-2-methoxyphenyl)-5-[4-(2-sulfoethylcarbamoyl)phenyl]-2H-tetrazolium (WST-4), and the compound was dissolved. Thus, a control sample was produced. […] Thus, a control reaction solution was produced.\nAt the time of production of the measurement solution (0 hour), and after 1 hour, 2 hours, and 6 hours from the production, the spectra of the measurement solutions produced as described above were measured using a spectrophotometer (measurement cell length: 50 μm) (n=1). For each spectrum, the absorbance at the maximum absorption wavelength (λmax) of each compound as determined above was measured. The absorbances measured at the time of production of the measurement solution (0 hour) and after 6 hours from the production were designated as Abs0 h and Abs6 h, respectively. […]"}},
  "data": [
    {"substance": "2-benzothiazolyl-3-(4-carboxy-2-methoxyphenyl)-5-[4-(2-sulfoethylcarbamoyl)phenyl]-2H-tetrazolium [Comparative Example 5, reference compound]", "values": [
      {"measurement": "Maximum absorption wavelength (λmax)", "setting": "[1]", "result": "No chelation"},
      {"measurement": "gradient (absorbance versus glucose concentration)", "setting": "[2]; FIG. 2, compound 1 at its λmax with nickel, WST-4 at 650 nm without nickel", "result": 0.0026},
      {"measurement": "Sensitivity, comparison with Comparative Example 5 (ratio)", "setting": "[2]; gradientsample/gradientWST-4", "result": 1, "unit": "times"},
      {"measurement": "Water-solubility", "setting": "[3]", "result": "◯ (a precipitate was seen in the 200 mM aqueous solution, but there was no precipitate in the 100 mM aqueous solution)"},
      {"measurement": "[(Abs6 h−Abs0 h)/6] value", "setting": "[4]", "result": "about 0.01"}
    ]}
  ]
}
